Reference: the supplement of paper PMC4862054

system: MFM-223; assay: normalised viability (% of control), CellTiter-Blue; higher = more viable cells (about 100 = DMSO control); settings: 2.5 nM; incubation time: 72 h
Procedure: (§1)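 DSRT, CellTiter-Blue viability, 72 h incubation. Signal is normalised to DMSO and benzethonium chloride controls. Value is the normalised response at dose 3.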

Structure (SMILES)	normalised viability [%]
CC(=O)Nc1cccc(-n2c(=O)n(C3CC3)c(=O)c3c(Nc4ccc(I)cc4F)n(C)c(=O)c(C)c32)c1	90.6

same assay, conditions: 10 nM; incubation time: 72 h

Structure (SMILES)	normalised viability [%]
COc1cc2c(Oc3ccc4[nH]c(C)cc4c3F)ncnc2cc1OCCCN1CCCC1 [Cediranib]	78.9
C=CC(=O)N1CCC[C@@H](n2nc(-c3ccc(Oc4ccccc4)cc3)c3c(N)ncnc32)C1	91.1
Cc1cnc(NC(=O)Nc2cc(Br)c(C)cc2OC[C@@H]2CNCCO2)cn1	89.6

same assay, conditions: 100 nM; incubation time: 72 h

Structure (SMILES)	normalised viability [%]
Nc1nc2[nH]cc(CCc3ccc(C(=O)N[C@@H](CCC(=O)O)C(=O)O)cc3)c2c(=O)[nH]1 [Pemetrexed]	91.6
C[C@H]1C[C@@H]2[C@H]([C@@H](O)C[C@@]3(C)[C@H]2CC[C@]3(O)C(=O)CO)[C@@]2(C)C=CC(=O)C=C12 [Methylprednisolone]	81.1
COc1cc([C@@H]2c3cc4c(cc3[C@@H](O[C@@H]3O[C@@H]5CO[C@@H](c6cccs6)O[C@H]5[C@H](O)[C@H]3O)[C@H]3COC(=O)[C@H]23)OCO4)cc(OC)c1O [Teniposide]	101
CCc1cncnc1N1CCN(Cc2nc3ccc(C(F)(F)F)cc3[nH]2)CC1	103
Oc1ncc(N(CCCl)CCCl)c(O)n1 [Uracil mustard]	90.6
COc1cc2nccc(Oc3ccc(NC(=O)Nc4cc(C)on4)c(Cl)c3)c2cc1OC [Tivozanib]	80.8
O=C(Cc1ccc(-c2ccc(OCCN3CCOCC3)cc2)cn1)NCc1ccccc1 [KX2-391]	52.8
CC1=C(/C=C/C(C)=C/C=C/C(C)=C/C(=O)O)C(C)(C)CCC1 [Tretinoin]	86.2

system: CAL-148; assay: as above; settings: 0.25 nM; incubation time: 72 h
Procedure: as §1

Structure (SMILES)	normalised viability [%]
CC(=O)Nc1cccc(-n2c(=O)n(C3CC3)c(=O)c3c(Nc4ccc(I)cc4F)n(C)c(=O)c(C)c32)c1	107

same assay, conditions: 1 nM; incubation time: 72 h

Structure (SMILES)	normalised viability [%]
COc1cc2c(Oc3ccc4[nH]c(C)cc4c3F)ncnc2cc1OCCCN1CCCC1 [Cediranib]	97.3
C=CC(=O)N1CCC[C@@H](n2nc(-c3ccc(Oc4ccccc4)cc3)c3c(N)ncnc32)C1	99.5
Cc1cnc(NC(=O)Nc2cc(Br)c(C)cc2OC[C@@H]2CNCCO2)cn1	90.3

same assay, conditions: 10 nM; incubation time: 72 h

Structure (SMILES)	normalised viability [%]
Nc1nc2[nH]cc(CCc3ccc(C(=O)N[C@@H](CCC(=O)O)C(=O)O)cc3)c2c(=O)[nH]1 [Pemetrexed]	101
C[C@H]1C[C@@H]2[C@H]([C@@H](O)C[C@@]3(C)[C@H]2CC[C@]3(O)C(=O)CO)[C@@]2(C)C=CC(=O)C=C12 [Methylprednisolone]	91.3
COc1cc([C@@H]2c3cc4c(cc3[C@@H](O[C@@H]3O[C@@H]5CO[C@@H](c6cccs6)O[C@H]5[C@H](O)[C@H]3O)[C@H]3COC(=O)[C@H]23)OCO4)cc(OC)c1O [Teniposide]	95.5
CCc1cncnc1N1CCN(Cc2nc3ccc(C(F)(F)F)cc3[nH]2)CC1	107
Oc1ncc(N(CCCl)CCCl)c(O)n1 [Uracil mustard]	95.8
COc1cc2nccc(Oc3ccc(NC(=O)Nc4cc(C)on4)c(Cl)c3)c2cc1OC [Tivozanib]	95.6
O=C(Cc1ccc(-c2ccc(OCCN3CCOCC3)cc2)cn1)NCc1ccccc1 [KX2-391]	89.1
CC1=C(/C=C/C(C)=C/C=C/C(C)=C/C(=O)O)C(C)(C)CCC1 [Tretinoin]	92.1

system: MDA-MB-453; assay: as above; settings: 0.25 nM; incubation time: 72 h
Procedure: as §1

Structure (SMILES)	normalised viability [%]
CC(=O)Nc1cccc(-n2c(=O)n(C3CC3)c(=O)c3c(Nc4ccc(I)cc4F)n(C)c(=O)c(C)c32)c1	106

same assay, conditions: 1 nM; incubation time: 72 h

Structure (SMILES)	normalised viability [%]
COc1cc2c(Oc3ccc4[nH]c(C)cc4c3F)ncnc2cc1OCCCN1CCCC1 [Cediranib]	78.9
C=CC(=O)N1CCC[C@@H](n2nc(-c3ccc(Oc4ccccc4)cc3)c3c(N)ncnc32)C1	94.4
Cc1cnc(NC(=O)Nc2cc(Br)c(C)cc2OC[C@@H]2CNCCO2)cn1	104

same assay, conditions: 10 nM; incubation time: 72 h

Structure (SMILES)	normalised viability [%]
Nc1nc2[nH]cc(CCc3ccc(C(=O)N[C@@H](CCC(=O)O)C(=O)O)cc3)c2c(=O)[nH]1 [Pemetrexed]	118
C[C@H]1C[C@@H]2[C@H]([C@@H](O)C[C@@]3(C)[C@H]2CC[C@]3(O)C(=O)CO)[C@@]2(C)C=CC(=O)C=C12 [Methylprednisolone]	100
COc1cc([C@@H]2c3cc4c(cc3[C@@H](O[C@@H]3O[C@@H]5CO[C@@H](c6cccs6)O[C@H]5[C@H](O)[C@H]3O)[C@H]3COC(=O)[C@H]23)OCO4)cc(OC)c1O [Teniposide]	111
CCc1cncnc1N1CCN(Cc2nc3ccc(C(F)(F)F)cc3[nH]2)CC1	98.8
Oc1ncc(N(CCCl)CCCl)c(O)n1 [Uracil mustard]	107
COc1cc2nccc(Oc3ccc(NC(=O)Nc4cc(C)on4)c(Cl)c3)c2cc1OC [Tivozanib]	94.5
O=C(Cc1ccc(-c2ccc(OCCN3CCOCC3)cc2)cn1)NCc1ccccc1 [KX2-391]	107
CC1=C(/C=C/C(C)=C/C=C/C(C)=C/C(=O)O)C(C)(C)CCC1 [Tretinoin]	92.9

system: MDA-MB-468; assay: as above; settings: 2.5 nM; incubation time: 72 h
Procedure: as §1

Structure (SMILES)	normalised viability [%]
CC(=O)Nc1cccc(-n2c(=O)n(C3CC3)c(=O)c3c(Nc4ccc(I)cc4F)n(C)c(=O)c(C)c32)c1	105

same assay, conditions: 10 nM; incubation time: 72 h

Structure (SMILES)	normalised viability [%]
COc1cc2c(Oc3ccc4[nH]c(C)cc4c3F)ncnc2cc1OCCCN1CCCC1 [Cediranib]	103
C=CC(=O)N1CCC[C@@H](n2nc(-c3ccc(Oc4ccccc4)cc3)c3c(N)ncnc32)C1	102
Cc1cnc(NC(=O)Nc2cc(Br)c(C)cc2OC[C@@H]2CNCCO2)cn1	104

same assay, conditions: 100 nM; incubation time: 72 h

Structure (SMILES)	normalised viability [%]
Nc1nc2[nH]cc(CCc3ccc(C(=O)N[C@@H](CCC(=O)O)C(=O)O)cc3)c2c(=O)[nH]1 [Pemetrexed]	99
C[C@H]1C[C@@H]2[C@H]([C@@H](O)C[C@@]3(C)[C@H]2CC[C@]3(O)C(=O)CO)[C@@]2(C)C=CC(=O)C=C12 [Methylprednisolone]	96.6
COc1cc([C@@H]2c3cc4c(cc3[C@@H](O[C@@H]3O[C@@H]5CO[C@@H](c6cccs6)O[C@H]5[C@H](O)[C@H]3O)[C@H]3COC(=O)[C@H]23)OCO4)cc(OC)c1O [Teniposide]	79.8
CCc1cncnc1N1CCN(Cc2nc3ccc(C(F)(F)F)cc3[nH]2)CC1	117
Oc1ncc(N(CCCl)CCCl)c(O)n1 [Uracil mustard]	108
COc1cc2nccc(Oc3ccc(NC(=O)Nc4cc(C)on4)c(Cl)c3)c2cc1OC [Tivozanib]	96.8
O=C(Cc1ccc(-c2ccc(OCCN3CCOCC3)cc2)cn1)NCc1ccccc1 [KX2-391]	47.6
CC1=C(/C=C/C(C)=C/C=C/C(C)=C/C(=O)O)C(C)(C)CCC1 [Tretinoin]	115

system: SK-BR-3; assay: as above; settings: 2.5 nM; incubation time: 72 h
Procedure: as §1

Structure (SMILES)	normalised viability [%]
CC(=O)Nc1cccc(-n2c(=O)n(C3CC3)c(=O)c3c(Nc4ccc(I)cc4F)n(C)c(=O)c(C)c32)c1	92.7

same assay, conditions: 10 nM; incubation time: 72 h

Structure (SMILES)	normalised viability [%]
COc1cc2c(Oc3ccc4[nH]c(C)cc4c3F)ncnc2cc1OCCCN1CCCC1 [Cediranib]	65.8
C=CC(=O)N1CCC[C@@H](n2nc(-c3ccc(Oc4ccccc4)cc3)c3c(N)ncnc32)C1	57.9
Cc1cnc(NC(=O)Nc2cc(Br)c(C)cc2OC[C@@H]2CNCCO2)cn1	88.3

same assay, conditions: 100 nM; incubation time: 72 h

Structure (SMILES)	normalised viability [%]
Nc1nc2[nH]cc(CCc3ccc(C(=O)N[C@@H](CCC(=O)O)C(=O)O)cc3)c2c(=O)[nH]1 [Pemetrexed]	84
C[C@H]1C[C@@H]2[C@H]([C@@H](O)C[C@@]3(C)[C@H]2CC[C@]3(O)C(=O)CO)[C@@]2(C)C=CC(=O)C=C12 [Methylprednisolone]	82.5
COc1cc([C@@H]2c3cc4c(cc3[C@@H](O[C@@H]3O[C@@H]5CO[C@@H](c6cccs6)O[C@H]5[C@H](O)[C@H]3O)[C@H]3COC(=O)[C@H]23)OCO4)cc(OC)c1O [Teniposide]	52.3
CCc1cncnc1N1CCN(Cc2nc3ccc(C(F)(F)F)cc3[nH]2)CC1	98.2
Oc1ncc(N(CCCl)CCCl)c(O)n1 [Uracil mustard]	88.2
COc1cc2nccc(Oc3ccc(NC(=O)Nc4cc(C)on4)c(Cl)c3)c2cc1OC [Tivozanib]	105
O=C(Cc1ccc(-c2ccc(OCCN3CCOCC3)cc2)cn1)NCc1ccccc1 [KX2-391]	19.3
CC1=C(/C=C/C(C)=C/C=C/C(C)=C/C(=O)O)C(C)(C)CCC1 [Tretinoin]	87.1

system: HCC1937; assay: as above; settings: 2.5 nM; incubation time: 72 h
Procedure: as §1

Structure (SMILES)	normalised viability [%]
CC(=O)Nc1cccc(-n2c(=O)n(C3CC3)c(=O)c3c(Nc4ccc(I)cc4F)n(C)c(=O)c(C)c32)c1	102

same assay, conditions: 10 nM; incubation time: 72 h

Structure (SMILES)	normalised viability [%]
COc1cc2c(Oc3ccc4[nH]c(C)cc4c3F)ncnc2cc1OCCCN1CCCC1 [Cediranib]	96.6
C=CC(=O)N1CCC[C@@H](n2nc(-c3ccc(Oc4ccccc4)cc3)c3c(N)ncnc32)C1	108
Cc1cnc(NC(=O)Nc2cc(Br)c(C)cc2OC[C@@H]2CNCCO2)cn1	127

same assay, conditions: 100 nM; incubation time: 72 h

Structure (SMILES)	normalised viability [%]
Nc1nc2[nH]cc(CCc3ccc(C(=O)N[C@@H](CCC(=O)O)C(=O)O)cc3)c2c(=O)[nH]1 [Pemetrexed]	92.8
C[C@H]1C[C@@H]2[C@H]([C@@H](O)C[C@@]3(C)[C@H]2CC[C@]3(O)C(=O)CO)[C@@]2(C)C=CC(=O)C=C12 [Methylprednisolone]	97.7
COc1cc([C@@H]2c3cc4c(cc3[C@@H](O[C@@H]3O[C@@H]5CO[C@@H](c6cccs6)O[C@H]5[C@H](O)[C@H]3O)[C@H]3COC(=O)[C@H]23)OCO4)cc(OC)c1O [Teniposide]	61.4
CCc1cncnc1N1CCN(Cc2nc3ccc(C(F)(F)F)cc3[nH]2)CC1	104
Oc1ncc(N(CCCl)CCCl)c(O)n1 [Uracil mustard]	105
COc1cc2nccc(Oc3ccc(NC(=O)Nc4cc(C)on4)c(Cl)c3)c2cc1OC [Tivozanib]	88.2
O=C(Cc1ccc(-c2ccc(OCCN3CCOCC3)cc2)cn1)NCc1ccccc1 [KX2-391]	25.1
CC1=C(/C=C/C(C)=C/C=C/C(C)=C/C(=O)O)C(C)(C)CCC1 [Tretinoin]	98.9

system: MDA-MB-231; assay: as above; settings: 2.5 nM; incubation time: 72 h
Procedure: as §1

Structure (SMILES)	normalised viability [%]
CC(=O)Nc1cccc(-n2c(=O)n(C3CC3)c(=O)c3c(Nc4ccc(I)cc4F)n(C)c(=O)c(C)c32)c1	57.7

same assay, conditions: 10 nM; incubation time: 72 h

Structure (SMILES)	normalised viability [%]
COc1cc2c(Oc3ccc4[nH]c(C)cc4c3F)ncnc2cc1OCCCN1CCCC1 [Cediranib]	82.1
C=CC(=O)N1CCC[C@@H](n2nc(-c3ccc(Oc4ccccc4)cc3)c3c(N)ncnc32)C1	90.3
Cc1cnc(NC(=O)Nc2cc(Br)c(C)cc2OC[C@@H]2CNCCO2)cn1	103

same assay, conditions: 100 nM; incubation time: 72 h

Structure (SMILES)	normalised viability [%]
Nc1nc2[nH]cc(CCc3ccc(C(=O)N[C@@H](CCC(=O)O)C(=O)O)cc3)c2c(=O)[nH]1 [Pemetrexed]	94.9
C[C@H]1C[C@@H]2[C@H]([C@@H](O)C[C@@]3(C)[C@H]2CC[C@]3(O)C(=O)CO)[C@@]2(C)C=CC(=O)C=C12 [Methylprednisolone]	120
COc1cc([C@@H]2c3cc4c(cc3[C@@H](O[C@@H]3O[C@@H]5CO[C@@H](c6cccs6)O[C@H]5[C@H](O)[C@H]3O)[C@H]3COC(=O)[C@H]23)OCO4)cc(OC)c1O [Teniposide]	81.8
CCc1cncnc1N1CCN(Cc2nc3ccc(C(F)(F)F)cc3[nH]2)CC1	91.6
Oc1ncc(N(CCCl)CCCl)c(O)n1 [Uracil mustard]	100
COc1cc2nccc(Oc3ccc(NC(=O)Nc4cc(C)on4)c(Cl)c3)c2cc1OC [Tivozanib]	91.1
O=C(Cc1ccc(-c2ccc(OCCN3CCOCC3)cc2)cn1)NCc1ccccc1 [KX2-391]	26.1
CC1=C(/C=C/C(C)=C/C=C/C(C)=C/C(=O)O)C(C)(C)CCC1 [Tretinoin]	94
